# Tests used:
# [1] = system: filaggrin; assay: Filaggrin expression in mouse skin tissue after colchicine application (qPCR); type: in vivo, mice; details: 0.04% (w/w) and 0.1% (w/w) applied on back and ear skin twice a week for 4 weeks or more, FIG. 1
# Method: Specifically, colchicine was continuously applied on back and ear skin areas of laboratory mice at a low concentration of 0.04% (w/w) and at a high concentration of 0.1% (w/w) twice a week for 4 weeks or more. After completing the application experiment, a skin tissue was collected from each mouse and crushed with a tissue crusher to extract RNA. The crushed tissue powder was dissolved in a Trizol reagent solution (Sigma) and RNA was extracted using a RNeasy mini kit (Qiagen). The extracted RNA was reverse-transcribed to cDNA using IMPROM-II™ Reverse Transcription kit (Promega), and then an amount of filaggrin present in the skin tissue was measured by a quantitative PCR (qPCR) method using CFX96™ Real-Time PCR Detection System (Bio-Rad).
# [2] = system: allergic skin disease model (atopic dermatitis model) mouse derived by oxazolone; assay: Oxazolone-derived allergic skin disease (atopic dermatitis) model mouse: naked-eye observation and Hematoxylin and Eosin staining of ear skin; type: in vivo
# Method: (§1) Specifically, 150 μl of 3% 4-ethoxymethylene-2-phenyl-2-oxazolin-5-one (oxazolone) was applied on an abdominal skin of a 6-week-old laboratory animal to induce an immune response, and 20 μl of the same compound diluted to 0.1% was applied on the ear of a laboratory animal 3 times a week (total 6 times) to induce a skin disease. The ear of the laboratory animal was treated with 20 μl of the colchicine according to the present invention at a concentration of 0.05% 3 times a week (total 6 times). A negative control group treated with only ethanol which was a solvent and a positive control group treated with only oxazolone were also reflected in the experiment. The number of mice in each experiment group was maintained at 10 or more and the experiment was repeated 3 times.
# In addition, for pathological observation of skin after completing the application, an ear skin tissue of each mouse was collected and stained with Hematoxylin and Eosin, and the results are shown in FIG. 4.
# [3] = system: interleukin-13 (IL-13); assay: Inflammatory cytokine expression in skin tissue of oxazolone model (qPCR), IL-13; type: in vivo, mouse; details: group treated with both colchicine (0.05%) and oxazolone, compared with oxazolone treatment, FIG. 5
# Method: as §1
# (§2) After completing the application experiment of Example 2, a skin tissue was collected from each mouse and crushed with a tissue crusher to extract RNA. The crushed tissue powder was dissolved in a Trizol reagent solution (Sigma) and RNA was extracted using a RNeasy mini kit (Qiagen). The extracted RNA was reverse-transcribed to cDNA using ImProm-II™ Reverse Transcription kit (Promega), and then a cytokine degree present in the skin tissue was measured by a quantitative PCR (qPCR) method using CFX96™ Real-Time PCR Detection System (Bio-Rad). […]
# [4] = Moisture loss, skin barrier index and composite index by transdermal moisture loss meter (Tewameter); type: in vivo, mice
# Method: Colchicine was continuously applied on back and ear skin areas of laboratory mice at concentration of 0.05% (w/w) twice a week for 4 weeks or more, and then a moisture loss and skin barrier and composite indexes were measured by a transdermal moisture loss meter (Tewameter).
# The experiment results are shown in FIG. 2, and were compared with an experiment animal group with no colchicine applied.
# [5] = system: interleukin-4 (IL-4); assay: Inflammatory cytokine expression in skin tissue of oxazolone model (qPCR), IL-4; type: in vivo, mouse; details: group treated with both colchicine (0.05%) and oxazolone, compared with oxazolone treatment, FIG. 5
# Method: as §1, §2
# [6] = 20 μl of 0.05% colchicine on ear, total 6 times, with oxazolone treatment, H&E staining of ear skin, FIG. 4
# [7] = 0.05% (w/w) on back and ear skin twice a week for 4 weeks or more, Tewameter, vs group with no colchicine applied, FIG. 2
smiles,measurement,setting,value
COc1cc2c(c(OC)c1OC)-c1ccc(OC)c(=O)cc1[C@@H](NC(C)=O)CC2 [colchicine],expression amount of filaggrin,[1],increased an expression amount of filaggrin concentration-dependently
same,skin condition observed with the naked eye (ear),"[2]; 20 μl of 0.05% colchicine on ear 3 times a week (total 6 times), simultaneously with oxazolone, FIG. 3",very similar to that of a normal group treated with only a solvent
same,epithelial thickness,[2]; [6],decreased to a degree very similar to the normal case
same,total skin thickness,[2]; [6],decreased to a degree very similar to the normal case
same,skin abnormal symptom,"[2]; control group treated with only colchicine, H&E staining of ear skin",not detected
same,expression level of IL-13 in skin tissue,[3],≤ 50%
same,skin barrier index,[4]; [7],greatly increased
same,skin composite index,[4]; [7],greatly increased
same,skin moisture loss,[4]; [7],decreased
same,side effect with long-term application,[4]; skin application to mice for 4 weeks or more,without any side effect
same,expression level of IL-4 in skin tissue,[5],≤ 50%
